Measurements published in patent US10399987B2, “TGF beta receptor antagonists” (BRISTOL-MYERS SQUIBB COMPANY, priority 2015, dated 2019).

Target: HIS-TGFβR1 T204D (Homo sapiens (Human), UniProt P36897, T204D)
Assay: TGFβR1 HIS T204D HTRF assay (labeled small molecule probe, anti-HIS detection antibody)
Type: binding
Conditions: 1 nM HIS-TGFβR1 T204D, probe at Kd, 1 hour at room temperature, eleven concentrations

HIS-TGFβR1 T204D, sequence (P36897 34-503 T204D): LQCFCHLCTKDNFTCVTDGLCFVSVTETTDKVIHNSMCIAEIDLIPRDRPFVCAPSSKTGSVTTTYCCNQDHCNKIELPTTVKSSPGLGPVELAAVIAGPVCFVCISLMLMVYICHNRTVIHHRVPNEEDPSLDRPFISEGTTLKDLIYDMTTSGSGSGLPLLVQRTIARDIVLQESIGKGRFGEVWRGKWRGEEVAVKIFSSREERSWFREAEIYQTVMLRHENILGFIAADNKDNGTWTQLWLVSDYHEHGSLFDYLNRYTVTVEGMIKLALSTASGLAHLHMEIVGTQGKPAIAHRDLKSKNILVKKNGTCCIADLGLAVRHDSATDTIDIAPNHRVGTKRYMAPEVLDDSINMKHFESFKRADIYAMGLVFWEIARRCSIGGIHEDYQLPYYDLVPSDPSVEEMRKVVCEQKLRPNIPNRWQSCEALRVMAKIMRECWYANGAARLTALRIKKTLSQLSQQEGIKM

| SMILES | IC50 [nM] |
| --- | --- |
| CC(=O)Nc1cc(Nc2nc(-c3ccc(F)c(C)n3)nc3[nH]ccc23)c(F)cn1 [Example 18, N-(5-fluoro-4-((2-(5-fluoro-6-methylpyridin-2-yl)-7H-pyrrolo[2,3-d]pyrimidin-4-yl)amino)pyridin-2-yl)acetamide] | 1.3 |
| O=C1CCCN1c1cc(Nc2nc(-c3cccc(C(F)F)n3)nc3[nH]ccc23)ccn1 [Example 19, 1-(4-((2-(6-(difluoromethyl)pyridin-2-yl)-7H-pyrrolo[2,3-d]pyrimidin-4-yl)amino)pyridin-2-yl)pyrrolidin-2-one] | 5.8 |
| CC(=O)Nc1cc(Nc2nc(-c3ccccn3)nc3[nH]ccc23)ccn1 [Example 21, N-(4-((2-(pyridin-2-yl)-7H-pyrrolo[2,3-d]pyrimidin-4-yl)amino)pyridin-2-yl)acetamide] | 0.9 |
| CC(=O)Nc1cc(Nc2nc(-c3cccc(C)n3)nc3[nH]ccc23)ccn1 [Example 22, N-(4-((2-(6-methylpyridin-2-yl)-7H-pyrrolo[2,3-d]pyrimidin-4-yl)amino)pyridin-2-yl)acetamide] | 1 |
| CC(=O)Nc1cc(Nc2nc(-c3ccc(C(F)(F)F)cn3)nc3[nH]ccc23)ccn1 [Example 23, N-(4-((2-(5-(trifluoromethyl)pyridin-2-yl)-7H-pyrrolo[2,3-d]pyrimidin-4-yl)amino)pyridin-2-yl)acetamide] | 4.7 |
| CCC(=O)Nc1cc(Nc2nc(-c3cccc(C(F)(F)F)n3)nc3[nH]ccc23)ccn1 [Example 24, N-(4-((2-(6-(trifluoromethyl)pyridin-2-yl)-7H-pyrrolo[2,3-d]pyrimidin-4-yl)amino)pyridin-2-yl)propionamide] | 0.74 |
| CC(=O)Nc1cc(Nc2nc(-c3cccc(C(F)F)n3)nc3[nH]cc(C)c23)ccn1 [Example 25, N-(4-((2-(6-(difluoromethyl)pyridin-2-yl)-5-methyl-7H-pyrrolo[2,3-d]pyrimidin-4-yl)amino)pyridin-2-yl)acetamide] | 1.5 |
| CC(C)(C)CC(=O)Nc1cc(Nc2nc(-c3cccc(C(F)(F)F)n3)nc3[nH]ccc23)ccn1 [Example 26, 3,3-dimethyl-N-(4-((2-(6-(trifluoromethyl)pyridin-2-yl)-7H-pyrrolo[2,3-d]pyrimidin-4-yl)amino)pyridin-2-yl)butanamide] | 2.7 |
| CC(C)CC(=O)Nc1cc(Nc2nc(-c3cccc(C(F)(F)F)n3)nc3[nH]ccc23)ccn1 [Example 27, 3-methyl-N-(4-((2-(6-(trifluoromethyl)pyridin-2-yl)-7H-pyrrolo[2,3-d]pyrimidin-4-yl)amino)pyridin-2-yl)butanamide] | 0.85 |
| CS(=O)(=O)Nc1cc(Nc2nc(-c3cccc(C(F)(F)F)n3)nc3[nH]ccc23)ccn1 [Example 28, N-(4-((2-(6-(trifluoromethyl)pyridin-2-yl)-7H-pyrrolo[2,3-d]pyrimidin-4-yl)amino)pyridin-2-yl)methanesulfonamide] | 970 |
| CC(=O)Nc1cc(Nc2nc(-c3ccc(F)c(C)n3)nc3[nH]ccc23)ccn1 [Example 29, N-(4-((2-(5-fluoro-6-methylpyridin-2-yl)-7H-pyrrolo[2,3-d]pyrimidin-4-yl)amino)pyridin-2-yl)acetamide] | 0.77 |
| COC(=O)Nc1cc(Nc2nc(-c3cccc(C(F)(F)F)n3)nc3[nH]ccc23)ccn1 [Example 30, methyl (4-((2-(6-(trifluoromethyl)pyridin-2-yl)-7H-pyrrolo[2,3-d]pyrimidin-4-yl)amino)pyridin-2-yl)carbamate] | 2.5 |
| CC(=O)Nc1nccc(Nc2nc(-c3cccc(C(F)F)n3)nc3[nH]ccc23)c1F [Example 31, N-(4-((2-(6-(difluoromethyl)pyridin-2-yl)-7H-pyrrolo[2,3-d]pyrimidin-4-yl)amino)-3-fluoropyridin-2-yl)acetamide] | 0.37 |
| O=C(CN1CCOCC1)Nc1cc(Nc2nc(-c3cccc(C(F)(F)F)n3)nc3[nH]ccc23)ccn1 [Example 32, 2-morpholino-N-(4-((2-(6-(trifluoromethyl)pyridin-2-yl)-7H-pyrrol[2,3-d]pyrimidin-4-yl)amino)pyridin-2-yl)acetamide] | 0.77 |
| Cc1cccc(-c2nc(Nc3ccncc3F)c3c(C)c[nH]c3n2)n1 [Example 33, N-(3-fluoropyridin-4-yl)-5-methyl-2-(6-methylpyridin-2-yl)-7H-pyrrolo[2,3-d]pyrimidin-4-amine] | 0.25 |
| Cc1c[nH]c2nc(-c3cccc(C(F)(F)F)n3)nc(Nc3ccncc3F)c12 [Example 34, N-(3-fluoropyridin-4-yl)-5-methyl-2-(6-(trifluoromethyl)pyridin-2-yl)-7H-pyrrolo[2,3-d]pyrimidin-4-amine] | 4.5 |
| CC(C)(O)CNCc1c[nH]c2nc(-c3cccc(C(F)F)n3)nc(Nc3ccncc3F)c12 [Example 35, 1-(((2-(6-(difluoromethyl)pyridin-2-yl)-4-((3-fluoropyridin-4-yl)amino)-7H-pyrrolo[2,3-d]pyrimidin-5-yl)methyl)amino)-2-methylpropan-2-ol] | 1.4 |
| CC(=O)Nc1nccc(Nc2nc(-c3cccc(C(F)(F)F)n3)nc3[nH]ccc23)c1F [Example 36, N-[3-fluoro-4-({2-[6-(trifluoromethyl)pyridin-2-yl]-7H-pyrrolo[2,3-d]pyrimidin-4-yl}amino)pyridin-2-yl]acetamide] | 1.7 |
| Cc1cnccc1Nc1nc(-c2cccc(C(F)(F)F)n2)nc2[nH]ccc12 [Example 37, 3-methyl-N-{2-[6-(trifluoromethyl)pyridin-2-yl]-7H-pyrrolo[2,3-d]pyrimidin-4-yl}pyridin-4-amine] | 0.87 |
| CN(c1ccncc1)c1nc(-c2cccc(C(F)(F)F)n2)nc2[nH]ccc12 [Example 38, N-methyl-N-{2-[6-(trifluoromethyl)pyridin-2-yl]-7H-pyrrolo[2,3-d]pyrimidin-4-yl}pyridin-4-amine] | 0.59 |
| FC(F)(F)c1cccc(-c2nc(Nc3ccncc3C(F)(F)F)c3cc[nH]c3n2)n1 [Example 39, 3-(trifluoromethyl)-N-{2-[6-(trifluoromethyl)pyridin-2-yl]-7H-pyrrolo[2,3-d]pyrimidin-4-yl}pyridin-4-amine] | 0.64 |
| FC(F)(F)c1cccc(-c2nc(Nc3ccncc3Cl)c3cc[nH]c3n2)n1 [Example 40, 3-chloro-N-{2-[6-(trifluoromethyl)pyridin-2-yl]-7H-pyrrolo[2,3-d]pyrimidin-4-yl}pyridin-4-amine] | 0.6 |
| O=C(Nc1cc(Nc2nc(-c3cccc(C(F)(F)F)n3)nc3[nH]ccc23)ccn1)C1CC1 [Example 41, N-[4-({2-[6-(trifluoromethyl)pyridin-2-yl]-7H-pyrrolo[2,3-d]pyrimidin-4-yl}amino)pyridin-2-yl]cyclopropanecarboxamide] | 0.87 |
| COc1cnccc1Nc1nc(-c2cccc(C(F)(F)F)n2)nc2[nH]ccc12 [Example 42, 3-methoxy-N-{2-[6-(trifluoromethyl)pyridin-2-yl]-7H-pyrrolo[2,3-d]pyrimidin-4-yl}pyridin-4-amine] | 1.7 |
| CC(=O)Nc1cc(Nc2nc(-c3cccc(C(F)F)n3)nc3[nH]cc(CNCC(C)(C)O)c23)c(F)cn1 [Example 44, N-[4-({2-[6-(difluoromethyl)pyridin-2-yl]-5-{[(2-hydroxy-2-methylpropyl)amino]methyl}-7H-pyrrolo[2,3-d]pyrimidin-4-yl}amino)-5-fluoropyridin-2-yl]acetamide] | 2.6 |
